Test results reported in patent publication US10662218B2, “Analogs of celastrol” (ERX Pharmaceuticals, Inc., priority 2015, dated 2020).
≈ marks a conversion by molar mass, not a printed value. Where “and” joins values, the source holds several entries; their conditions need not be identical. Equal values may be shown once. Read-outs that look alike come from different tables or passages of the source. Each block holds one compound with its values, some of them ahead of it.

Columns and labels:
physchem = experiment: physchem
Method: • Test concentration: 100 μM (1% of DMSO) • Test systems: PBS (pH 7.4) • Incubation condition: shaken (1000 rpm) for 1 h at room temperature • Sample size: Duplicates (n=2) • Bioanalytical method: LC-MS/MS

[1] = system: C57BL/6 Diet Induced Obese (DIO) mice; experiment: Oral (P.O.) administration study in DIO mice: in vivo activity, body weights; parameters: species or system mouse; details: for change in vivo at 2 mg/kg: Mus musculus, po, difference of group mean, read-out: Body weight, %-Diff
From the text: The purpose of this study was to assess test articles in the Diet Induced Obese (DIO) mouse.
Male C57BL/6 Diet Induced Obese (DIO) mice were received from Taconic. Animals were acclimated to housing conditions for at least 1 week prior to vehicle acclimation dosing. Animals were acclimated to oral gavage dosing with vehicle once daily for Days 11 through 14 of the predose phase.
At initiation of dosing, animals were 21 to 22 weeks old, and their body weights ranged from 29.8 to 40.1 g.
Dose formulations were administered by oral gavage once daily for 10 days at a dose volume of 2 mL/kg. Doses were based on the most recently recorded scheduled body weight.
Body weights were recorded daily on Days 11 through 14 of the predose phase. Body weights were collected for all animals daily during the dosing phase prior to dosing.
Descriptive statistics (n, mean, standard error of the mean, standard deviation) were completed. Additionally, one-way analysis of variance followed by Dunnett's post-hoc test were performed on body weight (cumulative body weight change), glucose (glucose percent change), and food consumption (cumulative food consumption). Area under the curve (for body weight, cumulative body weight change, daily body weight change, and food consumption) was computed for treatment groups. An appropriate comparison test, such as one-way analysis of variance and Dunnett's, was performed on the group means for the area under the curve computations. Any additional statistical analysis and interpretation of the results were the responsibility of the sponsor.

[2] = pH 7.4, aqueous buffer, kinetic from dmso stock, Solubility (μM) Mean, Table 6-B; PBS (pH 7.4), test concentration 100 μM (1% of DMSO), shaken (1000 rpm) 1 h at room temperature, n = 2
[3] = pH 7.4, aqueous buffer, kinetic from dmso stock, Solubility (μM), Table 6-D; PBS (pH 7.4)
[4] = 2 mg/kg oral gavage once daily, dosing phase Day 1
[5] = 2 mg/kg oral gavage once daily, dosing phase Day 1, N 5
[6] = 2 mg/kg oral gavage once daily, dosing phase Day 2
[7] = 2 mg/kg oral gavage once daily, dosing phase Day 2, N 5
[8] = 2 mg/kg oral gavage once daily, dosing phase Day 3
[9] = 2 mg/kg oral gavage once daily, dosing phase Day 3, N 5
[10] = 2 mg/kg oral gavage once daily, dosing phase Day 4
[11] = 2 mg/kg oral gavage once daily, dosing phase Day 4, N 5
[12] = 2 mg/kg oral gavage once daily, dosing phase Day 5
[13] = 2 mg/kg oral gavage once daily, dosing phase Day 5, N 5
[14] = 2 mg/kg oral gavage once daily, dosing phase Day 6
[15] = 2 mg/kg oral gavage once daily, dosing phase Day 6, N 5
[16] = Day 7, DSNG phase, 2 mg/kg, male, N=5
[17] = Day 8, DSNG phase, 2 mg/kg, male, N=5
[18] = Day 9, DSNG phase, 2 mg/kg, male, N=5
[19] = Day 10, DSNG phase, 2 mg/kg, male, N=5
[20] = Day 11, DSNG phase, 2 mg/kg, male, N=5
[21] = 168 h, Day 7, DSNG phase, 2 mg/kg, male
[22] = 192 h, Day 8, DSNG phase, 2 mg/kg, male
[23] = 216 h, Day 9, DSNG phase, 2 mg/kg, male
[24] = 240 h, Day 10, DSNG phase, 2 mg/kg, male
[25] = 264 h, Day 11, DSNG phase, 2 mg/kg, male
[26] = PBS (pH 7.4), pH 7.4, aqueous buffer, kinetic from dmso stock, Solubility (μM) Mean, Table 6-B, test concentration 100 μM (1% of DMSO), shaken (1000 rpm) 1 h at room temperature, n = 2
[27] = PBS (pH 7.4), pH 7.4, aqueous buffer, kinetic from dmso stock, Solubility (μM), Table 6-D

Compound: CC1=C(O)C(=O)C=C2C1=CC=C1[C@@]2(C)CC[C@@]2(C)[C@@H]3C[C@](C)(C(N)=O)CC[C@]3(C)CC[C@]12C [ERX1006]
- solubility (physchem; [2]): 1.15 µM (≈ 0.517 µg/mL)
- solubility (physchem; [3]): 1.15 µM (≈ 0.515 µg/mL)
- Body weight %-Diff [1, 4]: −1%
- Body weight, Mean [1, 5]: 34.1 g
- Body weight %-Diff [1, 6]: −2%
- Body weight, Mean [1, 7]: 33.9 g
- Body weight %-Diff [1, 8]: −1%
- Body weight, Mean [1, 9]: 33.4 g
- Body weight %-Diff [1, 10]: −2%
- Body weight, Mean [1, 11]: 32.8 g
- Body weight %-Diff [1, 12]: −4%
- Body weight, Mean [1, 13]: 32.6 g
- Body weight %-Diff [1, 14]: −3%
- Body weight, Mean [1, 15]: 32.5 g
- Body weight, Mean [1, 16]: 32.0 g
- Body weight, Mean [1, 17]: 31.7 g
- Body weight, Mean [1, 18]: 31.4 g
- Body weight, Mean [1, 19]: 31.2 g
- Body weight, Mean [1, 20]: 30.9 g
- change in vivo at 2 mg/kg [1, 21]: -4%
- change in vivo at 2 mg/kg [1, 22]: -6%
- change in vivo at 2 mg/kg [1, 23]: -5%
- change in vivo at 2 mg/kg [1, 24]: -7%
- change in vivo at 2 mg/kg [1, 25]: -9%
- Individual Body Weight, PRED 11 ([1]; individual male DIO mouse of the 2 mg/kg group, pre-dose phase day 11 (baseline)): 37.6 g and 34.5 g and 32.2 g and 35.2 g and 36.7 g
- Individual Body Weight, PRED 12 ([1]; individual male DIO mouse of the 2 mg/kg group, pre-dose phase day 12 (baseline)): 38.0 g and 35.2 g and 32.7 g and 34.8 g and 36.8 g
- Individual Body Weight, PRED 13 ([1]; individual male DIO mouse of the 2 mg/kg group, pre-dose phase day 13 (baseline)): 37.4 g and 35.4 g and 32.5 g and 34.1 g and 36.3 g
- Individual Body Weight, PRED 14 ([1]; individual male DIO mouse of the 2 mg/kg group, pre-dose phase day 14 (baseline)): 38.5 g and 35.4 g and 32.7 g and 34.3 g and 36.9 g
- Individual Body Weight, DSNG 1 ([1]; individual male DIO mouse, 2 mg/kg, dosing phase day 1, 2 mg/kg): 35.7 g and 35.0 g and 32.7 g and 32.4 g and 34.9 g
- Individual Body Weight, DSNG 2 ([1]; individual male DIO mouse, 2 mg/kg, dosing phase day 2, 2 mg/kg): 35.0 g and 35.6 g and 31.8 g (2×) and 35.2 g

- solubility at 1 h (physchem; [26]): 1.55 µM (≈ 0.762 µg/mL)
- solubility at 1 h (physchem; [27]): 1.55 µM (≈ 0.762 µg/mL)
Compound: CCCOC1=C(C)C2=CC=C3[C@@](C)(CC[C@@]4(C)[C@@H]5C[C@](C)(C(N)=O)CC[C@]5(C)CC[C@]34C)C2=CC1=O [ERX1121]

- solubility at 1 h (physchem; [26]): 0.56 µM (≈ 0.349 µg/mL)
- solubility at 1 h (physchem; [27]): 0.557 µM (≈ 0.348 µg/mL)
Compound: CC(=O)Oc1cc2c(c(C)c1OC(C)=O)C(SC(C)C)C=C1[C@@]2(C)CC[C@@]2(C)[C@@H]3C[C@](C)(CN(C)C)CC[C@]3(C)CC[C@]12C (stereo partly shown) [ERX1115]

- solubility at 1 h (physchem; [26]): 0.91 µM (≈ 0.472 µg/mL)
- solubility at 1 h (physchem; [27]): 0.914 µM (≈ 0.474 µg/mL)
Compound: CC1=C(O)C(=O)C=C2C1=CC=C1[C@@]2(C)CC[C@@]2(C)[C@@H]3C[C@](C)(CN4CCN(C)CC4)CC[C@]3(C)CC[C@]12C [ERX1117]

- solubility at 1 h (physchem; PBS (pH 7.4), pH 7.4, aqueous buffer, kinetic from dmso stock, Solubility (μM) Mean, Table 6-C, test concentration 100 μM (1% of DMSO), shaken (1000 rpm) 1 h at room temperature, n = 2): 1.74 µM (≈ 1.19 µg/mL)
Compound: CC(=O)N[C@]1(C)CC[C@]2(C)CC[C@]3(C)C4=CC(SC(=O)c5ccccc5)c5c(cc(OC(C)=O)c(OC(C)=O)c5C)[C@]4(C)CC[C@@]3(C)[C@@H]2C1 (stereo partly shown) [ERX1173]

Compound: COC(=O)[C@]1(C)CC[C@]2(C)CC[C@]3(C)C4=CC=C5C(=CC(=O)C(O)=C5C)[C@]4(C)CC[C@@]3(C)[C@@H]2C1 [ERX1074]
- solubility at 1 h (physchem; [2]): 4.19 µM (≈ 1.95 µg/mL)
- solubility at 1 h (physchem; [3]): 4.19 µM (≈ 1.95 µg/mL)

Compound: CC1=C(O)C(=O)C=C2C1=CC=C1[C@@]2(C)CC[C@@]2(C)[C@@H]3C[C@](C)(CO)CC[C@]3(C)CC[C@]12C [ERX1010]
- solubility (physchem; [2]): 0.64 µM (≈ 0.279 µg/mL)
- solubility (physchem; [3]): 0.644 µM (≈ 0.281 µg/mL)

Compound: CC1=C(O)C(=O)C=C2C1=CC=C1[C@@]2(C)CC[C@@]2(C)[C@@H]3C[C@](C)(C(=O)N4CC(O)C4)CC[C@]3(C)CC[C@]12C [ERX1020]
- solubility (physchem; [2]): 0.54 µM (≈ 0.273 µg/mL)
- solubility (physchem; [3]): 0.54 µM (≈ 0.273 µg/mL)

Compound: CC1=C(O)C(=O)C=C2C1=CC=C1[C@@]2(C)CC[C@@]2(C)[C@@H]3C[C@](C)(C(=O)O)CC[C@]3(C)CC[C@]12C [ERX1000]
- solubility (physchem; [2]): 3.89 µM (≈ 1.75 µg/mL)
- solubility (physchem; [3]): 3.89 µM (≈ 1.75 µg/mL)
- Body weight %-Diff [1, 4]: 0%
- Body weight, Mean [1, 5]: 34.2 g
- Body weight %-Diff [1, 6]: −1%
- Body weight, Mean [1, 7]: 34.0 g
- Body weight %-Diff [1, 8]: −2%
- Body weight, Mean [1, 9]: 33.1 g
- Body weight %-Diff [1, 10]: −3%
- Body weight, Mean [1, 11]: 32.5 g
- Body weight %-Diff [1, 12]: −5%
- Body weight, Mean [1, 13]: 32.1 g
- Body weight %-Diff [1, 14]: −6%
- Body weight, Mean [1, 15]: 31.4 g
- Body weight, Mean [1, 16]: 30.6 g
- Body weight, Mean [1, 17]: 30.4 g
- Body weight, Mean [1, 18]: 30.3 g
- Body weight, Mean [1, 19]: 30.0 g
- Body weight, Mean [1, 20]: 29.1 g
- change in vivo at 2 mg/kg [1, 21]: -9%
- change in vivo at 2 mg/kg [1, 22]: -10%
- change in vivo at 2 mg/kg [1, 23]: -9%
- change in vivo at 2 mg/kg [1, 24]: -10%
- change in vivo at 2 mg/kg [1, 25]: -15%
